# Experimental data reported in patent US20090191193A1, “Aryl Vinyl Sulfides, Sulfones, Sulfoxides and Sulfonamides, Derivatives Thereof and Therapeutic Uses Thereof” (TEMPLE UNIVERSITY-OF THE COMMONWEALTH SYSTEM OF HIGHER …, priority 2006, published 2009).
# Legend:
# DU145 (prostate cancer) = assay: Effect on tumor cell lines, viable cell count by trypan blue exclusion (Latham et al.): DU145; type: cell-based; settings: DU145 prostate cancer cells, viable cell count 96 hours after treatment
# Experimental: (§1) The effect of the compounds of the invention on tumor cells was determined by the assay described by Latham et al., Oncogene 12:827-837 (1996). Tumor cells DU145 (prostate cancer), K562 (chronic myelogenous leukaemia), BT20 (breast carcinoma), H157 (non small cell lung carcinoma), or DLD1 (colon carcinoma) were plated in 6-well dishes at a cell density of 1.0×10^5 cells per 35-mm^2 well. […] The total number of viable cells was determined 96 hours later by trypsinizing the wells and counting the number of viable cells, as determined by trypan blue exclusion, using a hemacytometer. Normal HFL cells were treated with the same compounds under the same conditions of concentration and time.
# [1] = tested on: K562 (chronic myelogenous leukaemia); assay: Effect on tumor cell lines, viable cell count by trypan blue exclusion (Latham et al.): K562; type: cell-based; settings: K562 chronic myelogenous leukaemia cells, viable cell count 96 hours after treatment
# Experimental: as §1
"IC50 (DU145 (prostate cancer); Homo sapiens, DU-145, 96 h) [µM]","IC50 ([1]; Homo sapiens, K562, 96 h) [µM]",melting point [°C],IC50 (DU145 (prostate cancer)) [µM],IC50 [1] [µM],Structure (SMILES)
25 to 50,10 to 25,147 to 152,,,COc1cc(/C=C(\C#N)S(=O)(=O)Cc2ccc(Cl)cc2Cl)cc(OC)c1OC [Example 105]
50 to 100,50 to 100,132 to 137,,,COc1ccc(OC)c(/C=C(\C#N)S(=O)(=O)Cc2ccc(Cl)cc2Cl)c1 [Example 106]
50 to 100,> 100,164 to 170,,,COc1cc(OC)c(OC)cc1/C=C(\C#N)S(=O)(=O)Cc1ccc(Cl)cc1Cl [Example 107]
> 100,> 100,219 to 223,,,N#C/C(=C\c1ccccc1O)S(=O)(=O)Cc1ccc(Cl)cc1Cl [Example 108]
> 100,> 100,169 to 171,,,N#C/C(=C\c1ccc(O)c([N+](=O)[O-])c1)S(=O)(=O)Cc1ccc(Cl)cc1Cl [Example 109]
50 to 100,25 to 50,149 to 153,,,COc1ccc(/C=C(\C#N)S(=O)(=O)Cc2ccc(Cl)cc2Cl)cc1OC [Example 110]
> 100,> 100,165 to 170,,,COc1ccc(/C=C(\C#N)S(=O)(=O)Cc2ccc(Cl)cc2Cl)c(OC)c1 [Example 111]
50 to 100,50 to 100,219 to 223,,,N#C/C(=C\c1ccccc1)S(=O)(=O)Cc1ccc(Cl)cc1Cl [Example 112]
> 100,> 100,242 to 247,,,COc1ccc(/C=C(\C#N)S(=O)(=O)Cc2ccc(Cl)cc2Cl)c(O)c1 [Example 113]
> 100,> 100,122 to 126,,,Cc1ccoc1/C=C(\C#N)S(=O)(=O)Cc1cccc(Br)c1 [Example 114]
> 100,> 100,128 to 132,,,N#C/C(=C\c1ccoc1)S(=O)(=O)Cc1cccc(Br)c1 [Example 115]
> 100,> 100,119 to 121,,,N#C/C(=C\c1ccc(O)c(O)c1)S(=O)(=O)Cc1cccc(Br)c1 [Example 116]
> 100,> 100,160 to 165,,,N#C/C(=C\c1cccc(O)c1)S(=O)(=O)Cc1cccc(Br)c1 [Example 117]
> 100,> 100,142 to 148,,,Cc1ccc(/C=C(\C#N)S(=O)(=O)Cc2ccc(Br)cc2)s1 [Example 118]
> 100,> 100,124 to 128,,,Cc1ccc(C)c(/C=C(\C#N)S(=O)(=O)Cc2ccc(Br)cc2)c1 [Example 119]
> 100,> 100,171 to 176,,,N#C/C(=C\c1ccccc1O)S(=O)(=O)Cc1ccc(Cl)cc1 [Example 121]
> 100,> 100,150 to 154,,,N#C/C(=C\c1ccoc1)S(=O)(=O)Cc1ccc(Cl)cc1 [Example 122]
> 100,> 100,148 to 152,,,Cc1ccc(/C=C(\C#N)S(=O)(=O)Cc2ccc(Cl)cc2)s1 [Example 123]
> 100,50 to 100,132 to 135,,,N#C/C(=C\c1cccc(O)c1)S(=O)(=O)Cc1ccccc1 [Example 124]
50 to 100,> 100,135 to 138,,,N#C/C(=C\c1ccccc1O)S(=O)(=O)Cc1ccccc1 [Example 125]
> 100,> 100,169 to 172,,,COc1ccccc1/C=C(\C#N)S(=O)(=O)Cc1ccccc1 [Example 126]
> 100,50 to 100,118 to 121,,,Cc1ccoc1/C=C(\C#N)S(=O)(=O)Cc1ccccc1 [Example 128]

# Further lines, the compound ahead of its results:
Structure (SMILES),"IC50 (DU145 (prostate cancer); Homo sapiens, DU-145, 96 h) [µM]","IC50 ([1]; Homo sapiens, K562, 96 h) [µM]",melting point [°C],IC50 (DU145 (prostate cancer)) [µM],IC50 [1] [µM]
N#C/C(=C\c1c[nH]c2ccc(Br)cc12)S(=O)(=O)Cc1ccc(Cl)cc1Cl [Example 71],50 to 100,50 to 100,264 to 275,,
N#C/C(=C\c1c[nH]c2ccc(Br)cc12)S(=O)(=O)Cc1ccc(Cl)cc1 [Example 72],> 100,> 100,240 to 250,,
N#C/C(=C\c1c[nH]c2ccc(Cl)cc12)S(=O)(=O)Cc1ccc(Cl)cc1 [Example 73],25 to 50,10 to 25,172 to 182,,
CCOc1cc(/C=C(\C#N)S(=O)(=O)Cc2ccc(Cl)cc2)ccc1O [Example 74],,,150 to 165,50 to 100,50 to 100
N#C/C(=C\c1c[nH]c2ccc(Cl)cc12)S(=O)(=O)Cc1ccc(Cl)cc1Cl [Example 75],,,282 to 292,50 to 100,50 to 100
N#C/C(=C\c1c[nH]c2ccc(Cl)cc12)S(=O)(=O)Cc1ccc(F)cc1 [Example 77],50 to 100,50 to 100,250 to 265,,
N#C/C(=C\c1c[nH]c2ccc(Br)cc12)S(=O)(=O)Cc1ccc(F)cc1 [Example 78],50 to 100,50 to 100,260 to 270,,
COc1cc(OC)c(/C=C(\C#N)S(=O)(=O)Cc2ccc(F)cc2)c(OC)c1 [Example 79],> 100,50 to 100,182 to 192,,
COc1ccc(/C=C(\C#N)S(=O)(=O)Cc2ccc(F)cc2)cc1O [Example 80],> 100,50 to 100,193 to 205,,
N#C/C(=C\c1c[nH]c2ccccc12)S(=O)(=O)Cc1ccc(F)cc1 [Example 81],50 to 100,50 to 100,140 to 152,,
N#C/C(=C\c1ccc(Br)cc1)S(=O)(=O)Cc1ccc(F)cc1 [Example 82],> 100,> 100,155 to 168,,
N#C/C(=C\c1ccc(O)cc1O)S(=O)(=O)Cc1ccc(F)cc1 [Example 83],50 to 100,50 to 100,225 to 234,,
CC(=O)Oc1ccc(/C=C(\C#N)S(=O)(=O)Cc2ccc(F)cc2)cc1 [Example 84],1 to 10,1 to 10,116 to 125,,
N#C/C(=C\c1ccc(Cl)cc1Cl)S(=O)(=O)Cc1ccc(F)cc1 [Example 85],> 100,50 to 100,153 to 163,,
COc1cc(/C=C(\C#N)S(=O)(=O)Cc2ccc(F)cc2)cc(OC)c1 [Example 86],> 100,> 100,120 to 123,,
Cc1ccc(/C=C(\C#N)S(=O)(=O)Cc2ccc(F)cc2)cc1C [Example 88],25 to 50,10 to 25,122 to 132,,

Structure (SMILES),"IC50 (DU145 (prostate cancer); Homo sapiens, DU-145, 96 h) [µM]","IC50 ([1]; Homo sapiens, K562, 96 h) [µM]",melting point [°C],IC50 (DU145 (prostate cancer)) [µM],IC50 [1] [µM]
N#C/C(=C\c1ccc(Cl)cc1)S(=O)(=O)Cc1ccc(F)cc1 [Example 89],50 to 100,50 to 100,150 to 155,,
Cc1ccc(C)c(/C=C(\C#N)S(=O)(=O)Cc2ccc(F)cc2)c1 [Example 90],> 100,50 to 100,122 to 130,,
N#C/C(=C\c1c[nH]c2ccc(Cl)cc12)S(=O)(=O)Cc1ccc(Cl)cc1Cl [Example 91],,,150 to 161,10 to 25,10 to 25
N#C/C(=C\c1ccc(O)cc1O)S(=O)(=O)Cc1ccc(Cl)cc1Cl [Example 92],50 to 100,25 to 50,220 to 230,,
COc1ccc(/C=C(\C#N)S(=O)(=O)Cc2ccc(Cl)cc2Cl)c(OC)c1OC [Example 93],25 to 50,25 to 50,150 to 165,,
CCOc1ccc(/C=C(\C#N)S(=O)(=O)Cc2ccc(Cl)cc2Cl)cc1OC [Example 94],50 to 100,25 to 50,126 to 131,,
N#C/C(=C\c1ccc(F)cc1Cl)S(=O)(=O)Cc1ccc(Cl)cc1Cl [Example 95],50 to 100,50 to 100,142 to 148,,
Cc1ccc(C)c(/C=C(\C#N)S(=O)(=O)Cc2ccc(Cl)cc2Cl)c1 [Example 96],> 100,50 to 100,142 to 149,,
Cc1ccc(/C=C(\C#N)S(=O)(=O)Cc2ccc(Cl)cc2Cl)cc1C [Example 97],> 100,> 100,126 to 142,,
N#C/C(=C\c1ccc(Br)cc1)S(=O)(=O)Cc1ccc(Cl)cc1Cl [Example 98],50 to 100,25 to 50,126 to 138,,
COc1ccc(/C=C(\C#N)S(=O)(=O)Cc2ccc(Cl)cc2Cl)cc1 [Example 99],> 100,50 to 100,114 to 127,,
N#C/C(=C\c1ccc(Cl)cc1)S(=O)(=O)Cc1ccc(Cl)cc1Cl [Example 100],> 100,> 100,119 to 125,,
Cc1cc(C)cc(/C=C(\C#N)S(=O)(=O)Cc2ccc(Br)cc2)c1 [Example 101],> 100,50 to 100,169 to 172,,
Cc1ccoc1/C=C(\C#N)S(=O)(=O)Cc1ccc(Cl)cc1Cl [Example 103],> 100,50 to 100,184 to 189,,
N#C/C(=C\c1ccoc1)S(=O)(=O)Cc1ccc(Cl)cc1Cl [Example 104],> 100,50 to 100,116 to 122,,
